Results published in ChEMBL document CHEMBL4184109, “Design, synthesis, and structure-activity relationship studies of novel tetrazole antifungal agents with potent activity, broad antifungal spectrum and high selectivity” (Bioorg Med Chem Lett, 2018).
Converted amounts (≈) assume the structure as drawn.

Columns and labels:
Type in all cases: functional
Aspergillus fumigatus = assay: Antifungal activity against Aspergillus fumigatus after 48 hrs by serial dilution method
Candida parapsilosis = assay: Antifungal activity against Candida parapsilosis ATCC 22019 after 24 hrs by serial dilution method; conditions: Lodderomyces parapsilosis, ATCC 22019, 24 h
Cryptococcus neoformans = assay: Antifungal activity against Cryptococcus neoformans after 72 hrs by serial dilution method
Candida albicans [1] = assay: Antifungal activity against Candida albicans SC5314 after 24 hrs by serial dilution method; conditions: SC5314, 24 h
Candida albicans [2] = assay: Antifungal activity against Candida albicans Y0109 after 24 hrs by serial dilution method; conditions: Y0109, 24 h
Nakaseomyces glabratus = assay: Antifungal activity against Candida glabrata after 24 hrs by serial dilution method
Trichophyton rubrum = assay: Antifungal activity against Trichophyton rubrum by serial dilution method
Nannizzia gypsea = assay: Antifungal activity against Microsporum gypseum by serial dilution method

Compound	MIC80 (Aspergillus fumigatus)	MIC80 (Candida parapsilosis)	MIC80 (Cryptococcus neoformans)	MIC80 (Candida albicans [1])	MIC80 (Candida albicans [2])	MIC80 (Nakaseomyces glabratus)	MIC80 (Trichophyton rubrum)	MIC80 (Nannizzia gypsea)
O=c1n(-c2ccc(C(F)(F)C(O)(Cn3cnnn3)c3ccc(F)cc3F)nc2)cnn1CCO (stereo not given)	> 8 µg/mL	> 8 µg/mL	> 8 µg/mL	> 8 µg/mL	> 8 µg/mL	> 8 µg/mL		
COCCOc1ccc(Cn2ncn(-c3ccc(C(F)(F)C(O)(Cn4cnnn4)c4ccc(F)cc4F)nc3)c2=O)cc1 (stereo not given)	> 64 µg/mL	2 µg/mL (≈ 3.33 µM)	0.5 µg/mL (≈ 0.833 µM)	1 µg/mL (≈ 1.67 µM)	1 µg/mL (≈ 1.67 µM)	2 µg/mL (≈ 3.33 µM)		
N#Cc1ccc(Cn2ncn(-c3ccc(C(F)(F)C(O)(Cn4cnnn4)c4ccc(F)cc4F)nc3)c2=O)cc1 (stereo not given)	> 8 µg/mL	0.5 µg/mL (≈ 0.907 µM)	4 µg/mL (≈ 7.25 µM)	2 µg/mL (≈ 3.63 µM)	1 µg/mL (≈ 1.81 µM)	4 µg/mL (≈ 7.25 µM)		
CCC(CC)n1ncn(-c2ccc(C(F)(F)C(O)(Cn3cnnn3)c3ccc(F)cc3F)nc2)c1=O (stereo not given)	> 8 µg/mL	0.25 µg/mL (≈ 0.494 µM)	4 µg/mL (≈ 7.9 µM)	1 µg/mL (≈ 1.97 µM)	2 µg/mL (≈ 3.95 µM)	1 µg/mL (≈ 1.97 µM)		
O=c1n(-c2ccc(C(F)(F)C(O)(Cn3cnnn3)c3ccc(F)cc3F)nc2)cnn1Cc1ccncc1 (stereo not given)	> 64 µg/mL	8 µg/mL (≈ 15.2 µM)	2 µg/mL (≈ 3.79 µM)	4 µg/mL (≈ 7.58 µM)	4 µg/mL (≈ 7.58 µM)	4 µg/mL (≈ 7.58 µM)		
O=c1n(-c2ccc(C(F)(F)C(O)(Cn3cnnn3)c3ccc(F)cc3F)nc2)cnn1Cc1ccc(OC(F)(F)F)cc1 (stereo not given)	> 8 µg/mL	0.5 µg/mL (≈ 0.819 µM)	2 µg/mL (≈ 3.28 µM)	1 µg/mL (≈ 1.64 µM)	1 µg/mL (≈ 1.64 µM)	4 µg/mL (≈ 6.55 µM)		
CS(=O)(=O)c1ccc(Cn2ncn(-c3ccc(C(F)(F)C(O)(Cn4cnnn4)c4ccc(F)cc4F)nc3)c2=O)cc1 (stereo not given)	> 64 µg/mL	> 64 µg/mL	> 64 µg/mL	> 64 µg/mL	> 64 µg/mL	> 64 µg/mL		
O=c1n(-c2ccc(C(F)(F)C(O)(Cn3cnnn3)c3ccc(F)cc3F)nc2)cnn1Cc1ccc(Cl)cc1 (stereo not given)	> 8 µg/mL	0.5 µg/mL (≈ 0.891 µM)	1 µg/mL (≈ 1.78 µM)	1 µg/mL (≈ 1.78 µM)	1 µg/mL (≈ 1.78 µM)	2 µg/mL (≈ 3.57 µM)		
CC(C)n1ncn(-c2ccc(C(F)(F)C(O)(Cn3cnnn3)c3ccc(F)cc3F)nc2)c1=O (stereo not given)	> 8 µg/mL	0.5 µg/mL (≈ 1.05 µM)	8 µg/mL (≈ 16.7 µM)	1 µg/mL (≈ 2.09 µM)	1 µg/mL (≈ 2.09 µM)	2 µg/mL (≈ 4.18 µM)		
O=c1n(-c2ccc(C(F)(F)C(O)(Cn3cnnn3)c3ccc(F)cc3F)nc2)cnn1Cc1ccc(F)cc1 (stereo not given)	> 8 µg/mL	0.25 µg/mL (≈ 0.459 µM)	2 µg/mL (≈ 3.67 µM)	0.5 µg/mL (≈ 0.918 µM)	1 µg/mL (≈ 1.84 µM)	2 µg/mL (≈ 3.67 µM)		

The next lines start with the values.

MIC80 (Aspergillus fumigatus)	MIC80 (Candida parapsilosis)	MIC80 (Cryptococcus neoformans)	MIC80 (Candida albicans [1])	MIC80 (Candida albicans [2])	MIC80 (Nakaseomyces glabratus)	MIC80 (Trichophyton rubrum)	MIC80 (Nannizzia gypsea)	Compound
> 64 µg/mL	0.25 µg/mL (≈ 0.469 µM)	1 µg/mL (≈ 1.88 µM)	1 µg/mL (≈ 1.88 µM)	0.5 µg/mL (≈ 0.939 µM)	1 µg/mL (≈ 1.88 µM)	2 µg/mL (≈ 3.76 µM)	4 µg/mL (≈ 7.51 µM)	O=c1n(-c2ccc(C(F)(F)C(O)(Cn3cnnn3)c3ccc(F)cc3F)nc2)cnn1CC1CCCCC1 (stereo not given)
> 64 µg/mL	1 µg/mL (≈ 1.88 µM)	1 µg/mL (≈ 1.88 µM)	2 µg/mL (≈ 3.76 µM)	1 µg/mL (≈ 1.88 µM)	2 µg/mL (≈ 3.76 µM)	0.5 µg/mL (≈ 0.939 µM)	> 64 µg/mL	CC1CCC(n2ncn(-c3ccc(C(F)(F)C(O)(Cn4cnnn4)c4ccc(F)cc4F)nc3)c2=O)CC1 (stereo not given)
> 64 µg/mL	0.5 µg/mL (≈ 0.902 µM)	0.5 µg/mL (≈ 0.902 µM)	1 µg/mL (≈ 1.8 µM)	0.5 µg/mL (≈ 0.902 µM)	2 µg/mL (≈ 3.61 µM)	2 µg/mL (≈ 3.61 µM)	> 64 µg/mL	O=c1n(-c2ccc(C(F)(F)C(O)(Cn3cnnn3)c3ccc(F)cc3F)nc2)cnn1C1CCC(F)(F)CC1 (stereo not given)
> 64 µg/mL	4 µg/mL (≈ 7.32 µM)	4 µg/mL (≈ 7.32 µM)	4 µg/mL (≈ 7.32 µM)	4 µg/mL (≈ 7.32 µM)	8 µg/mL (≈ 14.6 µM)	0.125 µg/mL (≈ 0.229 µM)	> 64 µg/mL	CC1(C)CCC(n2ncn(-c3ccc(C(F)(F)C(O)(Cn4cnnn4)c4ccc(F)cc4F)nc3)c2=O)CC1 (stereo not given)
> 64 µg/mL	2 µg/mL (≈ 3.66 µM)	2 µg/mL (≈ 3.66 µM)	2 µg/mL (≈ 3.66 µM)	1 µg/mL (≈ 1.83 µM)	4 µg/mL (≈ 7.32 µM)	1 µg/mL (≈ 1.83 µM)	> 64 µg/mL	O=c1n(-c2ccc(C(F)(F)C(O)(Cn3cnnn3)c3ccc(F)cc3F)nc2)cnn1C1CCCCCCC1 (stereo not given)
> 8 µg/mL	2 µg/mL (≈ 3.76 µM)	> 8 µg/mL	> 8 µg/mL	4 µg/mL (≈ 7.51 µM)	> 8 µg/mL			O=C1CCCCC1n1ncn(-c2ccc(C(F)(F)C(O)(Cn3cnnn3)c3ccc(F)cc3F)nc2)c1=O (stereo not given)
> 8 µg/mL	2 µg/mL (≈ 4.31 µM)	8 µg/mL (≈ 17.2 µM)	2 µg/mL (≈ 4.31 µM)	2 µg/mL (≈ 4.31 µM)	8 µg/mL (≈ 17.2 µM)			CCn1ncn(-c2ccc(C(F)(F)C(O)(Cn3cnnn3)c3ccc(F)cc3F)nc2)c1=O (stereo not given)
> 64 µg/mL	1 µg/mL (≈ 1.82 µM)	1 µg/mL (≈ 1.82 µM)	1 µg/mL (≈ 1.82 µM)	0.5 µg/mL (≈ 0.912 µM)	4 µg/mL (≈ 7.29 µM)	8 µg/mL (≈ 14.6 µM)	> 64 µg/mL	COC1CCC(n2ncn(-c3ccc(C(F)(F)C(O)(Cn4cnnn4)c4ccc(F)cc4F)nc3)c2=O)CC1 (stereo not given)
